# Reference: PMC10746212 (mBio, 2023)
# Target: T1, MdrA (rMdrA) (Brucella abortus, UniProt Q2YN99)
# T1 construct: gene BAB1_0783
# Conditions: 192 bp btaE promoter fragment, rMucR present, pH 7.4, room temperature; inhibitor of MdrA displacement activity; no direct binding measured
# T1 sequence (Q2YN99 1-199 limits assumed): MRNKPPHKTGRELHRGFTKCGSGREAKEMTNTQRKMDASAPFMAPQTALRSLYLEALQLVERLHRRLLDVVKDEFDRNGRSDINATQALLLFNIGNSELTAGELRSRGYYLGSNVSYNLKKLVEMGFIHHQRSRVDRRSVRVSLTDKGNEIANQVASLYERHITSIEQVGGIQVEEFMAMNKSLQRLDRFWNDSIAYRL
compound,measurement,value
C[C@H](CCC(=O)O)[C@H]1CC[C@H]2[C@@H]3CC[C@@H]4C[C@H](O)CC[C@]4(C)[C@H]3C[C@H](O)[C@]12C [deoxycholate],"EMSA, displacement of MucR from 32P-labelled btaE promoter DNA by rMdrA",MdrA can no longer displace MucR from the btaE promoter when deoxycholate
